Reference: patent US20250074890A1, “CYANOPYRIDINE AND CYANOPYRIMIDINE BCL6 DEGRADERS” (DANA-FARBER CANCER INSTITUTE, INC., priority 2021, published 2025)

target: T1, BCL6 (Homo sapiens, UniProt P41182); test: HiBiT cellular degradation assay in Su-DHL-4 cells; format: cell-based; details: concentration to reach 50% degradation of endogenous SmBiT-tagged BCL6, 24 hours of compound treatment
T1 construct: Endogenous BCL6 was tagged with the 11-amino acid SmBiT through CRISPR/Cas9 gene editing; endogenous in cells; host or cells: Su-DHL-4 (CRISPR/Cas9 knock-in, single cell clone)
How it was run: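 SU-DHL-4 cells with endogenous BCL6 SmBiT-tagged by CRISPR/Cas9 treated with compound for 24 hours, then lysed and LgBiT added to reconstitute nanoluciferase; luminescence read after substrate addition. Degradation as percentage of DMSO control; DC50 is concentration giving 50% degradation.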

SMILES | DC50 [µM]
CNC(=O)COc1cc2cc(Nc3ncc(C#N)c(N4C[C@@H](C)C(F)(F)[C@@H](C)C4)n3)ccc2n(C)c1=O [Compound 1, 2-((6-((5-cyano-4-((3S,5R)-4,4-difluoro-3,5-dimethylpiperidin-1-yl)pyrimidin-2-yl)amino)-1-methyl-2-oxo-1,2-dihydroquinolin-3-yl)oxy)-N-methylacetamide] | 0.006
CNC(=O)COc1cc2cc(Nc3nc(N4C[C@@H](C)[C@@H](F)[C@@H](C)C4)c(C#N)cc3Cl)ccc2n(CCN)c1=O [Compound 66, 2-((1-(2-Aminoethyl)-6-((3-chloro-5-cyano-6-((3S,4S,5R)-4-fluoro-3,5-dimethylpiperidin-1-yl)pyridin-2-yl)amino)-2-oxo-1,2-dihydroquinolin-3-yl)oxy)-N-methylacetamide] | 0.006
CNC(=O)COc1cc2cc(Nc3nc(N4C[C@@H](C)[C@@H](O)[C@@H](C)C4)c(C#N)cc3Cl)ccc2n(CCN(C)C)c1=O [Compound 73, 2-((6-((3-chloro-5-cyano-6-((3S,4S,5R)-4-hydroxy-3,5-dimethylpiperidin-1-yl)pyridin-2-yl)amino)-1-(2-(dimethylamino)ethyl)-2-oxo-1,2-dihydroquinolin-3-yl)oxy)-N-methylacetamide] | 0.009
C[C@@H]1CN(c2nc(Nc3ccc4c(c3)cc(OCC3(C)COC3)c(=O)n4C)c(Cl)cc2C#N)C[C@H](C)C1(F)F [Compound 9, 5-Chloro-2-((3R,5S)-4,4-difluoro-3,5-dimethylpiperidin-1-yl)-6-((1-methyl-3-((3-methyloxetan-3-yl)methoxy)-2-oxo-1,2-dihydroquinolin-6-yl)amino)nicotinonitrile] | > 0.4
CNC(=O)COc1cc2cc(Nc3nc(N4C[C@@H](C)C(F)[C@@H](C)C4)c(C#N)cc3Cl)ccc2n(CCN(C)C)c1=O (stereo partly drawn) [Compound 77, 2-((6-((3-Chloro-5-cyano-6-((3R,4R,5S)-4-fluoro-3,5-dimethylpiperidin-1-yl)pyridin-2-yl)amino)-1-(2-(dimethylamino)ethyl)-2-oxo-1,2-dihydroquinolin-3-yl)oxy)-N-methylacetamide] | 0.004
CNC(=O)COc1cc2cc(Nc3nc(N4C[C@@H](C)[C@@H](F)[C@@H](C)C4)c(C#N)cc3Cl)ccc2n(CCCN)c1=O [Compound 69, 2-((1-(3-Aminopropyl)-6-((3-chloro-5-cyano-6-((3S,4S,5R)-4-fluoro-3,5-dimethylpiperidin-1-yl)pyridin-2-yl)amino)-2-oxo-1,2-dihydroquinolin-3-yl)oxy)-N-methylacetamide] | 0.015
CC(O)CCn1c(=O)n(C)c2ccc(Nc3nc(N4C[C@H](CCO)[C@@H](F)[C@H](C)C4)c(C#N)cc3F)cc21 (stereo partly drawn) [Compound 57, 5-fluoro-2-[(3S,4S,5R)-4-fluoro-3-(2-hydroxyethyl)-5-methyl-1-piperidyl]-6-[[3-(3-hydroxybutyl)-1-methyl-2-oxo-benzimidazol-5-yl]amino]pyridine-3-carbonitrile] | > 0.4
CNC(=O)COc1cc2cc(Nc3nc(N4C[C@@H](C)C(F)(F)[C@@H](C)C4)c(C#N)cc3Cl)ccc2n(C)c1=O [Compound 2, 2-((6-((3-Chloro-5-cyano-6-((3S,5R)-4,4-difluoro-3,5-dimethylpiperidin-1-yl)pyridin-2-yl)amino)-1-methyl-2-oxo-1,2-dihydroquinolin-3-yl)oxy)-N-methylacetamide] | 0.006
C[C@@H]1CN(c2nc(Nc3ccc4c(c3)n(CCC(C)(C)O)c(=O)n4CC3COC3)c(Cl)cc2C#N)C[C@H](N)C1(F)F [Compound 37, 2-((3S,5R)-3-Amino-4,4-difluoro-5-methylpiperidin-1-yl)-5-chloro-6-((3-(3-hydroxy-3-methylbutyl)-1-(oxetan-3-ylmethyl)-2-oxo-2,3-dihydro-1H-benzo[d]imidazol-5-yl)amino)nicotinonitrile] | 0.062
C[C@@H]1CN(c2nc(Nc3ccc4c(c3)cc(OC[C@@H]3CNCCO3)c(=O)n4C)c(Cl)cc2C#N)C[C@H](C)[C@@H]1F [Compound 70, 5-Chloro-2-((3S,4S,5R)-4-fluoro-3,5-dimethylpiperidin-1-yl)-6-((1-methyl-3-((S)-morpholin-2-ylmethoxy)-2-oxo-1,2-dihydroquinolin-6-yl)amino)nicotinonitrile] | > 0.4
CNC(=O)COc1cc2cc(Nc3nc(N4C[C@@H](C)C(F)(F)[C@@H](C)C4)c(C#N)cc3Cl)ccc2nc1OCC1COC1 [Compound 58, 2-((6-((3-chloro-5-cyano-6-((3R,5S)-4,4-difluoro-3,5-dimethylpiperidin-1-yl)pyridin-2-yl)amino)-2-(oxetan-3-ylmethoxy)quinolin-3-yl)oxy)-N-methylacetamide] | > 0.4
CNC(=O)COc1cc2cc(Nc3nc(N4C[C@@H](CCO)C(F)(F)[C@@H](C)C4)c(C#N)cc3Cl)ccc2n(C)c1=O [Compound 62, 2-((6-((3-chloro-5-cyano-6-((3R,5S)-4,4-difluoro-3-(2-hydroxyethyl)-5-methylpiperidin-1-yl)pyridin-2-yl)amino)-1-methyl-2-oxo-1,2-dihydroquinolin-3-yl)oxy)-N-methylacetamide] | 0.008
CNC(=O)COc1cc2cc(Nc3nc(N4C[C@@H](C)C(F)[C@@H](C)C4)c(C#N)cc3Cl)ccc2n(CCN2CCOCC2)c1=O (stereo partly drawn) [Compound 68, 2-[[6-[[3-Chloro-5-cyano-6-[(3R,5S)-4-fluoro-3,5-dimethyl-1-piperidyl]-2-pyridyl]amino]-1-(2-morpholinoethyl)-2-oxo-3-quinolyl]oxy]-N-methyl-acetamide] | 0.004
C[C@H]1CN(c2nc(Nc3ccc4c(c3)n(CCC(C)(C)O)c(=O)n4C)c(F)cc2C#N)C[C@@H](O)C1(F)F (single isomer, unassigned) [Compound 83] | > 0.4
CNC(=O)COc1cc2cc(Nc3nc(N4C[C@@H](C)C[C@@H](C(=O)O)C4)c(C#N)cc3Cl)ccc2n(C)c1=O [Compound 78, (3R,5S)-1-(5-chloro-3-cyano-6-((1-methyl-3-(2-(methylamino)-2-oxoethoxy)-2-oxo-1,2-dihydroquinolin-6-yl)amino)pyridin-2-yl)-5-methylpiperidine-3-carboxylic acid] | > 0.4
CNC(=O)COc1cc2cc(Nc3nc(N4C[C@H](CCO)C(F)(F)[C@H](C)C4)c(C#N)cc3Cl)ccc2n(C)c1=O [Compound 63, 2-((6-((3-chloro-5-cyano-6-((3S,5R)-4,4-difluoro-3-(2-hydroxyethyl)-5-methylpiperidin-1-yl)pyridin-2-yl)amino)-1-methyl-2-oxo-1,2-dihydroquinolin-3-yl)oxy)-N-methylacetamide] | 0.039
CNC(=O)COc1cc2cc(Nc3nc(N4C[C@@H](C)[C@H](O)[C@@H](C)C4)c(C#N)cc3Cl)ccc2n(C)c1=O [Compound 47, 2-((6-((3-Chloro-5-cyano-6-((3R,4r,5S)-4-hydroxy-3,5-dimethylpiperidin-1-yl)pyridin-2-yl)amino)-1-methyl-2-oxo-1,2-dihydroquinolin-3-yl)oxy)-N-methylacetamide] | 0.011

system: Su-DHL-4 cells; test: CellTiter-Glo cell proliferation, BCL6 degrader with EZH2 inhibitors; format: cell-based; details: EZH2 inhibitor at 480 nM added to BCL6 degrader (compound 1); Su-DHL-4 cells; 60% growth inhibition
Protocol: Enhancer of zeste homolog 2 (EZH2) is a member of the polycomb repressive complex 2 (PRC2) that methylates histone 3 lysine 27, a mark that is associated with gene repression.
To ensure HiBiT signal decrease was due to BCL6 degradation and not from dying cells, CellTiter-Glo® (CTG, Promega™) was performed on the same number of cells that were treated for 24 hours with BCL6 degraders. To study the anti-proliferative effects of BCL6 degraders and its synergistic effect with EZH2 inhibitors, Su-DHL-4 and other DLBCL cells were treated with the compounds at DC99, DC75, DC50, or 1 μM followed by 5 days of culture, at which point CTG values and/or Caspase3/7 activities were measured as percent DMSO treated.

SMILES | reduction of BCL6 degrader dose requirement to achieve GI60
COc1cc(C)[nH]c(=O)c1CNC(=O)c1c(C)n([C@H](C)C2CCN(CC(F)(F)F)CC2)c2ccccc12 [Lira, Lirametostat, reference compound] | around 4.3 fold

same assay, conditions: compound 1 (50 nM to 2 nM) added 48 hours after Tazemetostat or Lirametostat (10 μM to 5 nM); read five days later; over most of the concentration range

SMILES | excess over Bliss (eob) score
CNC(=O)COc1cc2cc(Nc3ncc(C#N)c(N4C[C@@H](C)C(F)(F)[C@@H](C)C4)n3)ccc2n(C)c1=O [Compound 1, 2-((6-((5-cyano-4-((3S,5R)-4,4-difluoro-3,5-dimethylpiperidin-1-yl)pyrimidin-2-yl)amino)-1-methyl-2-oxo-1,2-dihydroquinolin-3-yl)oxy)-N-methylacetamide] | > 1

same assay, conditions: compound 1 with Tazemetostat or Lirametostat; Su-DHL-4 cells; over most of the concentration range

SMILES | average synergy score (SynergyFinder)
CNC(=O)COc1cc2cc(Nc3ncc(C#N)c(N4C[C@@H](C)C(F)(F)[C@@H](C)C4)n3)ccc2n(C)c1=O [Compound 1, 2-((6-((5-cyano-4-((3S,5R)-4,4-difluoro-3,5-dimethylpiperidin-1-yl)pyrimidin-2-yl)amino)-1-methyl-2-oxo-1,2-dihydroquinolin-3-yl)oxy)-N-methylacetamide] | over 10
